Like-named read-outs stand apart in the source and are kept apart here.
Experiments:
[1] = MTT cytotoxicity assay on noncancerous LLC-PK1 cells; type: cell-based, Pig; conditions: pig, LLC-PK1 pig kidney epithelial cells, read-out: % Cell Viability on Noncancer LLC-PK1 cells
Protocol: (§1) Pig Kidney Epithelial (LLC-PK1) cell line (ATCC® CL-101™) was a generous gift of Prof. Jeong Hill Park, Research Institute of Pharmaceutical Science (College of Pharmacy, Seoul National University, Seoul 151-172, Korea).
(§2) RMS or LLC-PK1 cells were seeded and cultured in EMEM medium (Gibco, Waltham, MA, USA) supplemented with 10% fetal calf serum (FCS) (Gibco), 2 mM L-glutamine, 100 IU/mL penicillin and 100 µg/mL streptomycin (Sigma-Aldrich, St. Louis, MO, USA) in a humidified atmosphere of 5% CO2 at 37 °C.
(§3) The samples were dissolved in dimethyl sulfoxide (DMSO) at 10 mM and then diluted with culture medium to get three concentrations of 100; 50; 10 µM or 25; 12.5; 2.5 µM for cell proliferation assays. […] DMSO at different concentrations or was used as a blank control. Paclitaxel (Anzatax®, Mayne Pharma, Australia) was used as the reference compound at the concentration of 1, 5 and 10 µM (directly dissolved in culture medium).
(§4) The cells were cells were seeded in 96-well plates at 4.2 × 10^4 cell/cm^2. After 24 h of incubation at 37 °C, 5% CO2, 100 μL of chalcone samples at tested concentrations, reference compound, and blank control (DMSO) was added and incubated for 24 hours at 37 °C, 5% CO2.
(§5) Cell viability was evaluated as mitochondrial succinate dehydrogenase (SDH) activity, a marker of viable cells, using MTT test as described by Denizot and Lang. Briefly, SDH activity was detected after 3 hours incubation in culture medium without FCS containing 0.05 mg/mL MTT (3-4,5-dimethyl-thiazol-2-yl-2,5 diphenyl-tetrazolium bromide, Sigma-Aldrich), which is converted into formazan dissolved in acidified isopropanol (Merck, Darmstadt, Germany) by agitation for 10 min at room temperature. The produced purple solution was spectrophotometrically measured at 570 nm on Multiskan™ FC microplate Photometer (Thermo Scientific, Waltham, MA, USA).
(§6) Each assay was done in triplicate and the standard deviation of absorbance was less than 10% of the mean. The results were expressed as Mean + SD of six cultures of one representative experiment and statistically analyzed by Mann-Whitney test with SPSS 22.0 for Windows software. Threshold of significance was set at p < 0.05.
(§7) The IC50 values were calculated based on the linear regression between the concentrations of testing compound and the inhibition percentages of cells. The chalcone compounds with significant potential against RMS cells (IC50 < 20 μM) were then tested for their toxicity on LLC-PK1 cells.

[2] = system: Pig Kidney Epithelial (LLC-PK1) cell line (ATCC CL-101); experiment: as above; type: cell-based; conditions: LLC-PK1 cells
Protocol: as §1, §2, §3, §4, §5, §6, §7

[3] = system: Human muscle rhabdomyosarcoma (RMS) cell line (ATCC CCL-136); experiment: MTT cell proliferation (cytotoxicity) assay on RMS cells; type: cell-based; conditions: for IC50: MTT, 24 h incubation with sample
[4] = MTT cytotoxicity assay on noncancerous LLC-PK1 cells; type: cell-based; conditions: pig, LLC-PK1 pig kidney epithelial cells, read-out: % Cell Viability on Noncancer LLC-PK1 cells

Compound	melting point	IC50 ([3]; Homo sapiens, 24 h)	IC50 [3]	also measured
CN(C)c1ccc(/C=C/C(=O)c2ccc3c(c2)Nc2ccccc2S3)cc1 [Compound 1, (E)-3-(4-(N,N-Dimethylamino)phenyl)-1-(10H-phenothiazin-2-yl)prop-2-en-1-one]	232 to 233 °C	–	–	–
O=C(/C=C/c1ccc(OCc2ccccc2)cc1)c1ccc2c(c1)Nc1ccccc1S2 [Compound 2, (E)-3-(4-Benzyloxyphenyl)-1-(10H-phenothiazin-2-yl)prop-2-en-1-one]	215 to 216 °C	–	–	–
O=C(/C=C/c1cccc(Br)c1)c1ccc2c(c1)Nc1ccccc1S2 [Compound 3, (E)-3-(3-Bromophenyl)-1-(10H-phenothiazin-2-yl)prop-2-en-1-one]	230 to 232 °C	–	–	–
O=C(/C=C/c1ccccc1Cl)c1ccc2c(c1)Nc1ccccc1S2 [Compound 7, (E)-3-(2-Chlorophenyl)-1-(10H-phenothiazin-2-yl)prop-2-en-1-one]	202 to 203 °C	< 20 µM	18 ± 1.63 µM	viability at 24 h, 10 µM ([1]; 10 μM): 100 ± 6.5%; viability at 24 h, 50 µM [1]: 109 ± 10.9%; viability at 24 h, 100 µM [1]: 94.8 ± 7.6%; toxicity on the noncancerous LLC-PK1 cell line (in words) [2]: almost complete absence of toxicity
COc1ccc(/C=C/C(=O)c2ccc3c(c2)Nc2ccccc2S3)c(OC)c1 [Compound 8, (E)-3-(2,4-Dimethoxyphenyl)-1-(10H-phenothiazin-2-yl)prop-2-en-1-one]	178 to 179 °C	< 20 µM	19.7 ± 1.63 µM	viability at 24 h, 10 µM ([1]; 10 μM): 97.3 ± 10.2%; viability at 24 h, 50 µM [1]: 103 ± 6.4%; viability at 24 h, 100 µM [1]: 105 ± 5.4%; toxicity on the noncancerous LLC-PK1 cell line (in words) [2]: almost complete absence of toxicity
O=C(/C=C/c1cccs1)c1ccc2c(c1)Nc1ccccc1S2 [Compound 9, (E)-3-(Thiophen-2-yl)-1-(10H-phenothiazin-2-yl)prop-2-en-1-one]	229 to 230 °C	< 20 µM	12.5 ± 1.74 µM	viability at 24 h, 10 µM ([1]; 10 μM): 98.8 ± 10.6%; viability at 24 h, 50 µM [1]: 98.2 ± 7.3%; viability at 24 h, 100 µM [1]: 97.1 ± 5%; toxicity on the noncancerous LLC-PK1 cell line (in words) [2]: almost complete absence of toxicity
O=C(/C=C/c1ccc(Cl)cc1)c1cccs1 [Compound 10]	–	49.6 ± 3.2 µM	–	–
O=C(/C=C/c1ccccc1O)c1cccs1 [Compound 11]	–	48.8 ± 2.42 µM	–	–
COc1cc(/C=C/C(=O)c2cccs2)cc(OC)c1OC [Compound 13]	–	26.6 ± 1.42 µM	–	–
COc1cc(/C=C/C(=O)c2ccco2)cc(OC)c1OC [Compound 14]	–	29.1 ± 1.82 µM	–	inhibition at 25 µM ([3]; Homo sapiens, 25 μM): 42.9%; inhibition at 50 µM ([3]; Homo sapiens, 50 μM): 26.5%; inhibition at 100 µM ([3]; Homo sapiens, 100 μM): 15.1%
CN(C)c1ccc(/C=C/C(=O)c2ccco2)cc1 [Compound 15]	–	77.3 ± 4.69 µM	–	–
COc1cc(/C=C/C(=O)c2ccccn2)cc(OC)c1OC [Compound 16]	–	< 20 µM	19.6 ± 1.04 µM	viability at 24 h, 10 µM ([1]; 10 μM): 99.1 ± 3.1%; viability at 24 h, 50 µM [1]: 102 ± 12.1%; viability at 24 h, 100 µM [1]: 104 ± 6.5%; toxicity on the noncancerous LLC-PK1 cell line (in words) [2]: almost complete absence of toxicity
COc1ccc(C(=O)/C=C/c2ccccn2)c(O)c1 [Compound 19, (E)-3-(Pyridin-2-yl)-1-(2-hydroxy-4-methoxyphenyl)prop-2-en-1-one]	130 to 131 °C	26.6 ± 1.72 µM	–	–
COc1ccc(C(=O)/C=C/c2cccnc2)c(O)c1 [Compound 20, (E)-3-(Pyridin-3-yl)-1-(2-hydroxy-4-methoxyphenyl)prop-2-en-1-one]	128 to 129 °C	20.8 ± 1.33 µM	–	–
CC(=O)O[C@H]1C(=O)[C@@]2(C)[C@H]([C@H](OC(=O)c3ccccc3)[C@]3(O)C[C@H](OC(=O)[C@H](O)[C@@H](NC(=O)c4ccccc4)c4ccccc4)C(C)=C1C3(C)C)[C@]1(OC(C)=O)CO[C@@H]1C[C@@H]2O [Paclitaxel, reference compound]	–	10.8 ± 0.47 µM	–	viability at 24 h, 2 µM ([4]; 2 μM (paclitaxel reference)): 103 ± 6%; viability at 24 h, 20 µM ([4]; 20 μM (paclitaxel reference)): 75 ± 3.6%; viability at 24 h, 10 µM ([1]; 10 μM (paclitaxel reference)): 108 ± 8.2%
(E)-3-(Pyridin-2-yl)-1-(2-hydroxyphenyl)prop-2-en-1-one [Compound 17]	–	–	92.9 ± 6.14 µM	–
(E)-3-(Pyridin-3-yl)-1-(2-hydroxyphenyl)prop-2-en-1-one [Compound 18]	–	–	91.1 ± 2.45 µM	–

Reference: PMC6273843, “Synthesis and Selective Cytotoxic Activities on Rhabdomyosarcoma and Noncancerous Cells of Some Heterocyclic Chalcones” (Molecules, 2016)
